Test results from ChEMBL document CHEMBL4028801, “A multifactorial approach to hepatobiliary transporter assessment enables improved therapeutic compound development” (Toxicol Sci, 2013).
Where a name gives a salt, the structure may show the parent alone.

Legend:
[1] = target: ATP-binding cassette sub-family C member 2 (Homo sapiens, UniProt Q92887); assay: Inhibition of human MRP2 overexpressed in Sf9 cell membrane vesicles assessed as uptake of [3H]-estradiol-17beta-D-glucuronide in presence of ATP and GSH measured after 20 mins by membrane vesicle transport assay
Sequence of ATP-binding cassette sub-family C member 2 (Q92887 whole entry): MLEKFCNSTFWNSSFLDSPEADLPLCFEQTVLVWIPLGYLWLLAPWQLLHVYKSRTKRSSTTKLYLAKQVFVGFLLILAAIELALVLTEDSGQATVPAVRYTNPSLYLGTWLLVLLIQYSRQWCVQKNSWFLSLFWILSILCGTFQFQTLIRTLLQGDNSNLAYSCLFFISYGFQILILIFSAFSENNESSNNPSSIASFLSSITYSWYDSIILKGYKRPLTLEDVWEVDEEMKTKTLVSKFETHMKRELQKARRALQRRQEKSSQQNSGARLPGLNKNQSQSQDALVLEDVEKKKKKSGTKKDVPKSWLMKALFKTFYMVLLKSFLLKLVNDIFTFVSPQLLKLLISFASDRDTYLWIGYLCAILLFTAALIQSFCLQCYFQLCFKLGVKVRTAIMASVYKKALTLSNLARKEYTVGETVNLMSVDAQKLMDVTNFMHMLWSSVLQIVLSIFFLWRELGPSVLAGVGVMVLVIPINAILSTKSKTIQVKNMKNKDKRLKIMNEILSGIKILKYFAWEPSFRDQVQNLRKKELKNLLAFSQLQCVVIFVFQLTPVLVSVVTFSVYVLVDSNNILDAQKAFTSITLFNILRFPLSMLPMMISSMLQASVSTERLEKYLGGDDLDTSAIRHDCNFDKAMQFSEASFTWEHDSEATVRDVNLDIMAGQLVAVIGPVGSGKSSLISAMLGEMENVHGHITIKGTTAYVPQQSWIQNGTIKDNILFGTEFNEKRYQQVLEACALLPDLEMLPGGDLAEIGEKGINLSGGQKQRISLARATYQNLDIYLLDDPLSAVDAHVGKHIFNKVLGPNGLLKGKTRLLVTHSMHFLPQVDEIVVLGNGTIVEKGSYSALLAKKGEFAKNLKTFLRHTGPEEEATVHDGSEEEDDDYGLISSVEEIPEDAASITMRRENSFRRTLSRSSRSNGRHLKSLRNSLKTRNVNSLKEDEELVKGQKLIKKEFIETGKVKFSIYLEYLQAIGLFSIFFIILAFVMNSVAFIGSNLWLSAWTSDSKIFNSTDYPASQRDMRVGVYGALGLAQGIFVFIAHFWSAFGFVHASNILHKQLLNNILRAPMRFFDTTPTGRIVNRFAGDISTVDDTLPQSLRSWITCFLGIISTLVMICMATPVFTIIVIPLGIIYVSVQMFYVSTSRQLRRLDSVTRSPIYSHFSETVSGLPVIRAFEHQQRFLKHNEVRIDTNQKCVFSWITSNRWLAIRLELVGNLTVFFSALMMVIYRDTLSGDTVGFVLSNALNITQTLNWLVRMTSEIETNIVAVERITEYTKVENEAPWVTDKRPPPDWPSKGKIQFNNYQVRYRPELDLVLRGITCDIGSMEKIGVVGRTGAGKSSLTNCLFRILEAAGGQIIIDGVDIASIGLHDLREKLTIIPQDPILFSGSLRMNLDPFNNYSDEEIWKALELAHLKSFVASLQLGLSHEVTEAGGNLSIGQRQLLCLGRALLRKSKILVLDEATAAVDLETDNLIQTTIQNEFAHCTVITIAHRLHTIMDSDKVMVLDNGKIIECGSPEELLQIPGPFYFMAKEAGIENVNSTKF

[2] = target: ATP-binding cassette sub-family C member 3 (Homo sapiens, UniProt O15438); assay: Inhibition of human MRP3 overexpressed in Sf9 insect cell membrane vesicles assessed as uptake of [3H]-estradiol-17beta-D-glucuronide in presence of ATP and GSH measured after 10 mins by membrane vesicle transport assay; type: ADME, cell-based
Sequence of ATP-binding cassette sub-family C member 3 (O15438 whole entry): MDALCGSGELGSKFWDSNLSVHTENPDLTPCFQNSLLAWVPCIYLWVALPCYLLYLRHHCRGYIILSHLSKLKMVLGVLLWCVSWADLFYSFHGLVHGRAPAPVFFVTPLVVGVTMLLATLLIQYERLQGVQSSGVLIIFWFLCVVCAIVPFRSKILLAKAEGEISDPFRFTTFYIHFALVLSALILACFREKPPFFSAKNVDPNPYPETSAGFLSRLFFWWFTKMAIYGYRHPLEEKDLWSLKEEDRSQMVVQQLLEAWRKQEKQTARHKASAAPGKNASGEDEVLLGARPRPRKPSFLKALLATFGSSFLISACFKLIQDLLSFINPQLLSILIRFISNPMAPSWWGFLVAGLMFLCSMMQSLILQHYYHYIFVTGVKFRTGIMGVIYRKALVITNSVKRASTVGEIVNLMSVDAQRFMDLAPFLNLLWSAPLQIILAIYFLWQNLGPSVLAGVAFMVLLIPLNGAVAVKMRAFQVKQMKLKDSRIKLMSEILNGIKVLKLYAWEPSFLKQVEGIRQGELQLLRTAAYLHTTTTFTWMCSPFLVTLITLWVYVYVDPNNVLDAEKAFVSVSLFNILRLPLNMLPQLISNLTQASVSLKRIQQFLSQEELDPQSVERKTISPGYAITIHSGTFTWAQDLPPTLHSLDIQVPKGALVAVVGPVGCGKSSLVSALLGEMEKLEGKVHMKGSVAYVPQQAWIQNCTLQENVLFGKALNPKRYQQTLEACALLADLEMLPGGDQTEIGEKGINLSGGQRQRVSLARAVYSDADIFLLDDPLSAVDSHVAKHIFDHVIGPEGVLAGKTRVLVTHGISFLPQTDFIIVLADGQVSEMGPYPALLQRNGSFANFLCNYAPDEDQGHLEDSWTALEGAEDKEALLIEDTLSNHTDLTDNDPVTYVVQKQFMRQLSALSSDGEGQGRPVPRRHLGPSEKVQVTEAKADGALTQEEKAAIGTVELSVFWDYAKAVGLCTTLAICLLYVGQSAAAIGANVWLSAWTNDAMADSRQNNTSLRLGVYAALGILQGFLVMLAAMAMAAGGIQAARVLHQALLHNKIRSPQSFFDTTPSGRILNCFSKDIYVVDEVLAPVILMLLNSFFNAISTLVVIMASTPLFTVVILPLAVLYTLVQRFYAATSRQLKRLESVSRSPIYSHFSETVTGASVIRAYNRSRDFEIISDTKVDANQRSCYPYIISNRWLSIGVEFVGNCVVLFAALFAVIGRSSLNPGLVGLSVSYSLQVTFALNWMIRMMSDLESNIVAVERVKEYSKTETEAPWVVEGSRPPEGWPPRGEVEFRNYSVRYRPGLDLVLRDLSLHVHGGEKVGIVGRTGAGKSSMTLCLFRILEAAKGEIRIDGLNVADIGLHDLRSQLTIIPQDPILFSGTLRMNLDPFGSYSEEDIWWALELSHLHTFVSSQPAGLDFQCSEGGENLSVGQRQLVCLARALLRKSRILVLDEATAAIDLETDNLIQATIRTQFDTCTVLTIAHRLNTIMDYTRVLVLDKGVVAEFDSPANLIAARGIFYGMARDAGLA

Bile salt export pump = Bile salt export pump (Homo sapiens, UniProt O95342); assay: Inhibition of human BSEP overexpressed in Sf9 cell membrane vesicles assessed as uptake of [3H]-taurocholate in presence of ATP measured after 15 to 20 mins by membrane vesicle transport assay; type: ADME, cell-based
Sequence of Bile salt export pump (O95342 whole entry): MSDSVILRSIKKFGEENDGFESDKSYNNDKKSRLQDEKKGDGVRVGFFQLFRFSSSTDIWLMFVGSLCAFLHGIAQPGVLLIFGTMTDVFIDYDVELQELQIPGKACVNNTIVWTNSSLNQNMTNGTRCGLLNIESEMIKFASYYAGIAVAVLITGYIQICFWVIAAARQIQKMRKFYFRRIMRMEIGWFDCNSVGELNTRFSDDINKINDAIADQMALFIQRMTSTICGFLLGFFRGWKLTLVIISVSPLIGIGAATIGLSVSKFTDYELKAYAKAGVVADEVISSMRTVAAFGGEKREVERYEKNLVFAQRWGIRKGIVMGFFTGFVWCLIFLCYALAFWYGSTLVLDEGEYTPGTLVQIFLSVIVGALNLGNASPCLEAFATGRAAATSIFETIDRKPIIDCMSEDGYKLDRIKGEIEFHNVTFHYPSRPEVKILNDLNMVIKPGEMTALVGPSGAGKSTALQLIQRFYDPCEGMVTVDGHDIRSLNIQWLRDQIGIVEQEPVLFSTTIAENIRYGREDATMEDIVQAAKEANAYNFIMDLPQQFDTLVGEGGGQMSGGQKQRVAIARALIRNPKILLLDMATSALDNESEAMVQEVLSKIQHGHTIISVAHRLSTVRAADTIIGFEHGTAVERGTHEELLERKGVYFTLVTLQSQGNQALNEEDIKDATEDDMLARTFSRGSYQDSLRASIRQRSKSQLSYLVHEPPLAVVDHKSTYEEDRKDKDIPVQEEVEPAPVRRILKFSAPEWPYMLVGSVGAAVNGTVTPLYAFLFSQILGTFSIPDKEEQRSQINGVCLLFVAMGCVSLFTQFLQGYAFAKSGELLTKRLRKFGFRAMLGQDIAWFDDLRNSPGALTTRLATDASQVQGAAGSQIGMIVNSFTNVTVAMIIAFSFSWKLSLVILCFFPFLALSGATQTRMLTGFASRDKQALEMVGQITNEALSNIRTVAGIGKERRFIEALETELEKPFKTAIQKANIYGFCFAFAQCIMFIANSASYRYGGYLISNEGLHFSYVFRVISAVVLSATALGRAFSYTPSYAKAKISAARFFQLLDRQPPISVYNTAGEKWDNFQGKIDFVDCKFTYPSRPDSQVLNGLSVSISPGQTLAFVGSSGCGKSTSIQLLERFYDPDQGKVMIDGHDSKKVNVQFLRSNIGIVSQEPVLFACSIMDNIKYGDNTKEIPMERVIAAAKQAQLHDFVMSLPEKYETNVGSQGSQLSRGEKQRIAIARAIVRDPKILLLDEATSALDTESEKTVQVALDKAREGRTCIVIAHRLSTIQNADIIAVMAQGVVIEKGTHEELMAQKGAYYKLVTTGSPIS

[3] = target: T1, ATP-binding cassette sub-family C member 4 (Homo sapiens, UniProt O15439); assay: Inhibition of human MRP4 overexpressed in Sf9 cell membrane vesicles assessed as uptake of [3H]-estradiol-17beta-D-glucuronide in presence of ATP and GSH measured after 20 mins by membrane vesicle transport assay; type: ADME, cell-based
T1 sequence (O15439 whole entry): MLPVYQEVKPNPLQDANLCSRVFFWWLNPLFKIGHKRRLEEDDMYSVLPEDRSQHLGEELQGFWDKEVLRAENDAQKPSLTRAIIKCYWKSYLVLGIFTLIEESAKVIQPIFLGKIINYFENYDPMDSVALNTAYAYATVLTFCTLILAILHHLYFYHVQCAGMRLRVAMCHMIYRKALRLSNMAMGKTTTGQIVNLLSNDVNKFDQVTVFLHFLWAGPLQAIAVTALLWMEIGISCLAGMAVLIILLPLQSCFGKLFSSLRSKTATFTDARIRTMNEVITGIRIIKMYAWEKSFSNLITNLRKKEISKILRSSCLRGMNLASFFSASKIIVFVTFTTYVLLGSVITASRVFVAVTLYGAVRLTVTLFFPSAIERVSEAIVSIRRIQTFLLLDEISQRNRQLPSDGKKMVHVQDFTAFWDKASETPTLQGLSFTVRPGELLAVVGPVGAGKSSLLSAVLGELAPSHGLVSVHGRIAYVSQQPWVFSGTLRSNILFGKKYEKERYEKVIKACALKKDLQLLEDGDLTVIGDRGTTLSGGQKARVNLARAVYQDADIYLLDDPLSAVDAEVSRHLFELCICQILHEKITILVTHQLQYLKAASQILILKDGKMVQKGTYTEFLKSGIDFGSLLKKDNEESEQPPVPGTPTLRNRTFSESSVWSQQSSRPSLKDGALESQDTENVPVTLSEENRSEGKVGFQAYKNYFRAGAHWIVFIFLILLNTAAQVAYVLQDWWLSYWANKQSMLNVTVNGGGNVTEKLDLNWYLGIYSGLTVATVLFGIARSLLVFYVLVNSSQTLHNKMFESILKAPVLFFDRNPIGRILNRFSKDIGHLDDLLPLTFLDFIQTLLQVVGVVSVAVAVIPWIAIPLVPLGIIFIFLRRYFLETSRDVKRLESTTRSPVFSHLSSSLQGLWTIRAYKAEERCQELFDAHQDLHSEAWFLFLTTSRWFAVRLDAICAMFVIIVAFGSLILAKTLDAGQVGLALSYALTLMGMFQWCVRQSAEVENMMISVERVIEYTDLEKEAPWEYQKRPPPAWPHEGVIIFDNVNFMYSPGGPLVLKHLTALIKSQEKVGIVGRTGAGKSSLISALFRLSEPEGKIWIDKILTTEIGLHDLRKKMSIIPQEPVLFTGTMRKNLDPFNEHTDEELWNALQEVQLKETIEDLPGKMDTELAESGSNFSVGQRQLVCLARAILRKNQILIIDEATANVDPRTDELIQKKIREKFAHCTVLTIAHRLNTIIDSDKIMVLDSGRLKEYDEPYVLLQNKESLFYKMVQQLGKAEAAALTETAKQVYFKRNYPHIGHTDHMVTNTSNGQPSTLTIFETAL

| Structure (SMILES) | IC50 [1] [µM] | IC50 [2] [µM] | IC50 (Bile salt export pump) [µM] | IC50 [3] [µM] |
| --- | --- | --- | --- | --- |
| O=C1OC(OC(=O)c2cccnc2Nc2cccc(C(F)(F)F)c2)c2ccccc21 (stereo not drawn) [TALNIFLUMATE] | > 133 | > 133 | > 133 | > 133 |
| CO/N=C1\CN(c2nc3c(cc2F)c(=O)c(C(=O)O)cn3C2CC2)CC1CN (stereo not drawn) [GEMIFLOXACIN MESYLATE] | > 133 | > 133 | > 133 | 73.2 |
| CS(=O)(=O)OCCCCOS(C)(=O)=O [BUSULFAN] | > 133 | > 133 | > 133 | > 133 |
| Cc1ccc(-c2nc3ccc(C)cn3c2CC(=O)N(C)C)cc1 | > 133 | > 133 | > 133 | > 133 |
| O=C(NCCO[N+](=O)[O-])c1cccnc1 [NICORANDIL] | > 133 | > 133 | > 133 | > 133 |
| CS(=O)(=O)Nc1ccc([N+](=O)[O-])cc1Oc1ccccc1 [NIMESULIDE] | > 133 | > 133 | > 133 | > 133 |
| CCCCCNC(=N)N/N=C/c1c[nH]c2ccc(OC)cc12 [TEGASEROD MALEATE] | > 133 | > 133 | > 133 | > 133 |
| Nc1nc2c(ncn2COCCO)c(=O)[nH]1 [ACYCLOVIR] | > 133 | > 133 | > 133 | > 133 |
| OCC(CO)N[C@H]1C[C@](O)(CO)[C@@H](O)[C@H](O)[C@H]1O [VOGLIBOSE] | > 133 | > 133 | > 133 | > 133 |
| NC(N)=Nc1nc(CSCCC(N)=NS(N)(=O)=O)cs1 [FAMOTIDINE] | > 133 | > 133 | > 133 | > 133 |
| CC(C)c1nc(N(C)S(C)(=O)=O)nc(-c2ccc(F)cc2)c1/C=C/[C@@H](O)C[C@@H](O)CC(=O)O [ROSUVASTATIN CALCIUM] | > 133 | 58.3 | > 133 | 26.8 |
| Cc1nccn1CC1CCc2c(c3ccccc3n2C)C1=O (stereo not drawn) [ONDANSETRON] | > 133 | > 133 | > 133 | > 133 |
| CCCCNC(=O)NS(=O)(=O)c1ccc(C)cc1 [TOLBUTAMIDE] | > 133 | > 133 | > 133 | > 133 |
| CCOC(=O)C1=C(COCCN)NC(C)=C(C(=O)OC)C1c1ccccc1Cl (stereo not drawn) [AMLODIPINE] | > 133 | > 133 | > 133 | > 133 |
| CC(=O)Nc1ccc(O)cc1 [ACETAMINOPHEN] | > 133 | > 133 | > 133 | > 133 |
| COc1ccc2c3c1O[C@H]1C[C@@H](O)C=C[C@@]31CCN(C)C2 [GALANTAMINE] | > 133 | > 133 | > 133 | > 133 |
| c1ccc(-c2ccc(C(c3ccccc3)n3ccnc3)cc2)cc1 (stereo not drawn) [BIFONAZOLE] | > 133 | > 133 | 27.1 | > 133 |
